target: T1, human tyrosinase (Homo sapiens, UniProt P14679); assay: Enzyme test: conversion of L-DOPA to L-dopaquinone by a human tyrosinase (MBTH, absorption at 490 nm); type: biochemical; conditions: concentration 10 μg/ml; inhibition of the tyrosinase activity
T1 sequence (P14679 19-529): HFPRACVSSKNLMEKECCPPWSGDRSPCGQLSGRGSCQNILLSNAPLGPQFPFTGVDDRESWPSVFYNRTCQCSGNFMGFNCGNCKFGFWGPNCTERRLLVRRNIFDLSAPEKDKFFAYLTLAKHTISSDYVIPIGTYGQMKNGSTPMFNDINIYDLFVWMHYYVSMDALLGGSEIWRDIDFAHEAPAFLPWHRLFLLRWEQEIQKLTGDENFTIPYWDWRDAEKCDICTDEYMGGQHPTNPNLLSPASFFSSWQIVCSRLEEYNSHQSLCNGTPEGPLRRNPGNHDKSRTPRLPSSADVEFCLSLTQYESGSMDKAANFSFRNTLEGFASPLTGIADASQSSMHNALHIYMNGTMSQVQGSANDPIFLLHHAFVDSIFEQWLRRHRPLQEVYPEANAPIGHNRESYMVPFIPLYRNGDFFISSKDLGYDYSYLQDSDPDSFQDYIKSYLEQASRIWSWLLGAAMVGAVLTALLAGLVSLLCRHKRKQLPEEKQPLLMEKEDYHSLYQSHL
Experimental: Method Description of the Effectiveness Investigations:
In this literature-known method (Winder, A. J. and Harris, H., New assays for the tyrosine hydroxylase and dopa oxidase activities of tyrosinase. Eur. J. Biochem. (1991), 198, 317-26), the reaction product L-dopaquinone is reacted with MBTH (3-methyl-2-benzothiazoline hydrazone) to give a pink-colored substance, the increase of which is measured over the time by absorption at 490 nm. […] It can be concluded from this that the substances according to the invention are extremely effective pigmentation-inhibiting substances.

With `CC(C)Nc1nc(-c2ccc(O)cc2O)cs1` [4-(2-Isopropylamino)thiazol-4-yl)benzene-1,3-diol, reference compound] the “Inhibition (% of the control)” value was 91%.

same assay, conditions: concentration 10 μg/ml; inhibition of the tyrosinase activity; read-out: Inhibition (% of the control)

Compared with `CC(C)(C)Nc1nc(-c2ccc(O)cc2O)cs1` [4-(2-(tert-Butylamino)thiazol-4-yl)benzene-1,3-diol, reference compound], `CC(C)(C)C(=O)Nc1nc(-c2ccc(O)cc2O)cs1` [N-(4-(2,4-Dihydroxyphenyl)thiazol-2-yl)pivalamide] is higher in inhibition at 10 µg/mL: 62% for the first, 96% for the second.

First: O=C(Nc1nc(-c2ccc(O)cc2O)cs1)C1CCCCC1 [N-(4-(2,4-Dihydroxyphenyl)thiazol-2-yl)cyclohexanecarboxamide]
Second: Oc1ccc(-c2csc(NC3CCCCC3)n2)c(O)c1 [4-(2-(Cyclohexylamino)thiazol-4-yl)benzene-1,3-diol, reference compound]
The inhibition at 10 µg/mL of the first is higher: 92% for the first, 70% for the second.

Compared with `CCCCCCNc1nc(-c2ccc(O)cc2O)cs1` [4-(2-(Hexylamino)thiazol-4-yl)benzene-1,3-diol, reference compound], `CCCNc1nc(-c2ccc(O)cc2O)cs1` [4-(2-(Propylamino)thiazol-4-yl)benzene-1,3-diol, reference compound] is higher in inhibition at 10 µg/mL: 41% for the first, 88% for the second.

Compared with `O=C(Cc1ccc(CO)cc1)Nc1nc(-c2ccc(O)cc2O)cs1` [N-(4-(2,4-Dihydroxyphenyl)thiazol-2-yl)-2-(4-(hydroxymethyl)phenyl)acetamide], `OCc1ccc(Nc2nc(-c3ccc(O)cc3O)cs2)cc1` [4-(2-((4-(Hydroxymethyl)phenyl)amino)thiazol-4-yl)benzene-1,3-diol, reference compound] is higher in inhibition at 10 µg/mL: 88% for the first, 93% for the second.

First: CCCC(=O)Nc1nc(-c2ccc(O)cc2O)cs1 [N-(4-(2,4-Dihydroxyphenyl)thiazol-2-yl)butyramide]
Second: CCCCCCC(=O)Nc1nc(-c2ccc(O)cc2O)cs1 [N-(4-(2,4-Dihydroxyphenyl)thiazol-2-yl)heptanamide]
The inhibition at 10 µg/mL of the first is higher: 95% for the first, 66% for the second.

`CC(C)C(=O)Nc1nc(-c2ccc(O)cc2O)cs1` [N-(4-(2,4-Dihydroxyphenyl)thiazol-2-yl)isobutyramide] and `O=C(Nc1nc(-c2ccc(O)cc2O)cs1)C1CCC(CO)CC1` (stereo not shown) [N-(4-(2,4-Dihydroxyphenyl)thiazol-2-yl)-4-(hydroxymethyl)cyclohexanecarboxamide] are the same in inhibition at 10 µg/mL: 94% for the first, 94% for the second.

Source: US9533963B2, “Alkylamidothiazoles, cosmetic or dermatological preparations containing said alkylamidothiazoles, and use thereof to combat or prevent undesired pigmentation of the skin” (BEIERSDORF AG, priority 2011, dated 2017)
